Laboratory results reported in publication PMC3914206.

Tests used:
Format in all cases: binding
Conditions in all cases: Compound Concentration 10 µM
panel of 442 kinases [1] = target: T1, panel of 442 kinases (Homo sapiens, UniProt P42336, C420R)
T1 construct: purchased KINOMEscan
Source text: (§1) We assessed the selectivity of members of this scaffold using the KINOMEscan methodology across a near comprehensive panel of 442 kinases [[18,27]].

panel of 442 kinases [2] = target: T2, panel of 442 kinases (Homo sapiens, UniProt P54646)
T2 construct: purchased KINOMEscan
Source text: as §1

panel of 442 kinases [3] = target: T3, panel of 442 kinases (Homo sapiens, UniProt O96017)
T3 construct: purchased KINOMEscan
Source text: as §1

panel of 442 kinases [4] = target: T4, panel of 442 kinases (Homo sapiens, UniProt P10721, L576P)
T4 construct: purchased KINOMEscan
Source text: as §1

T2 sequence (P54646 whole entry): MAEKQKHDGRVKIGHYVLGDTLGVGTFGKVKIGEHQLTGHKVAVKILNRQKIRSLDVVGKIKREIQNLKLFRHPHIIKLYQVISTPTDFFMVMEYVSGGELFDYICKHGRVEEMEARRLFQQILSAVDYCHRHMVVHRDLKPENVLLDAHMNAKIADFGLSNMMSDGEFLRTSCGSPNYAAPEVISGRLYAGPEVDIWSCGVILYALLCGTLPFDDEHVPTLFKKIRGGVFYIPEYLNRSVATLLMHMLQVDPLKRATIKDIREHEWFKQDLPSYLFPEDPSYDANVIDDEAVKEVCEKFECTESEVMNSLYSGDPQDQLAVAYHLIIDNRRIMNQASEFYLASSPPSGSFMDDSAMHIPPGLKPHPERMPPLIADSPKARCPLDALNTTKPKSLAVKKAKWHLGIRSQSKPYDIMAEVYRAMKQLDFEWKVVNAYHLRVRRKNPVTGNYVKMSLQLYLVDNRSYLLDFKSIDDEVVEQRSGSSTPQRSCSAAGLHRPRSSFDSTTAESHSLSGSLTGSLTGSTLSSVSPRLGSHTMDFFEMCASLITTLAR
T4 sequence (P10721 26-976 L576P): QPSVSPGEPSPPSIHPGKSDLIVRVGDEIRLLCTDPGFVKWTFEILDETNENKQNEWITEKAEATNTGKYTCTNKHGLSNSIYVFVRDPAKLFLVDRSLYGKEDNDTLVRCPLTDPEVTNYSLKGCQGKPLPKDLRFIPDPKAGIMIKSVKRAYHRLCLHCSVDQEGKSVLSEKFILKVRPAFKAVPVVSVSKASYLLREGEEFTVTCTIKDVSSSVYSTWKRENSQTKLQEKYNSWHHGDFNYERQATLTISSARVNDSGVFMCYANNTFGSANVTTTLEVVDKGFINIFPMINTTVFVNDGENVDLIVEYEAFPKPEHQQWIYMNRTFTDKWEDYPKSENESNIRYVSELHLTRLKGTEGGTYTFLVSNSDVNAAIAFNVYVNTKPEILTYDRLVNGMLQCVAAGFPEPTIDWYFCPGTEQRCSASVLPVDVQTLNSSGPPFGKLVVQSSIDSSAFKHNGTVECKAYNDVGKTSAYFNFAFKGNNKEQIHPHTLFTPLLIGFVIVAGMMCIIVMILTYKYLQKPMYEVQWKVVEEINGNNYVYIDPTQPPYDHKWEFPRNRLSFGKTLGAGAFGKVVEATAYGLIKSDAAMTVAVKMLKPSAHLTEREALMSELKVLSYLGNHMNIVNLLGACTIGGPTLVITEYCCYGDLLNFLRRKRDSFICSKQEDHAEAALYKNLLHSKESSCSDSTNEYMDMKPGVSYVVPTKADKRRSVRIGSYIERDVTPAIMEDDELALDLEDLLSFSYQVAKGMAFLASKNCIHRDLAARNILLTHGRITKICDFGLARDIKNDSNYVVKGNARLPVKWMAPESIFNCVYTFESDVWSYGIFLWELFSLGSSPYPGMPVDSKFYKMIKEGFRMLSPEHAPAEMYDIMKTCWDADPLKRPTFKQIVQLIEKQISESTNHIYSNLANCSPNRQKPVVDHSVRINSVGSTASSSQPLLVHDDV
T3 sequence (O96017 whole entry): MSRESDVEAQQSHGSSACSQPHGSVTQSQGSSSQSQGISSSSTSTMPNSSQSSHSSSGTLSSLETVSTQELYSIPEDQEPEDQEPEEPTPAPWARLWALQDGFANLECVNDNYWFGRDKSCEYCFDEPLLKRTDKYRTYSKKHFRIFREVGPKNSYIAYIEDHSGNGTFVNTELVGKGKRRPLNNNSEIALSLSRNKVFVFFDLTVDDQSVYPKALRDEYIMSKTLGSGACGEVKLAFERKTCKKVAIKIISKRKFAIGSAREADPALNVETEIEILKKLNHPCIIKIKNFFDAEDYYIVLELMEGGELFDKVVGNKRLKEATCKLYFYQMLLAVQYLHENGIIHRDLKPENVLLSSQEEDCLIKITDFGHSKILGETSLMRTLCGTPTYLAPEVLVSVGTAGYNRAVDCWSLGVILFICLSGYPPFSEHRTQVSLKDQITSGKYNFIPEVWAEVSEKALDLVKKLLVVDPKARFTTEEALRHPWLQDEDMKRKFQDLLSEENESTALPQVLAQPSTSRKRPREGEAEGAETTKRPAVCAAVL
T1 sequence (P42336 whole entry C420R): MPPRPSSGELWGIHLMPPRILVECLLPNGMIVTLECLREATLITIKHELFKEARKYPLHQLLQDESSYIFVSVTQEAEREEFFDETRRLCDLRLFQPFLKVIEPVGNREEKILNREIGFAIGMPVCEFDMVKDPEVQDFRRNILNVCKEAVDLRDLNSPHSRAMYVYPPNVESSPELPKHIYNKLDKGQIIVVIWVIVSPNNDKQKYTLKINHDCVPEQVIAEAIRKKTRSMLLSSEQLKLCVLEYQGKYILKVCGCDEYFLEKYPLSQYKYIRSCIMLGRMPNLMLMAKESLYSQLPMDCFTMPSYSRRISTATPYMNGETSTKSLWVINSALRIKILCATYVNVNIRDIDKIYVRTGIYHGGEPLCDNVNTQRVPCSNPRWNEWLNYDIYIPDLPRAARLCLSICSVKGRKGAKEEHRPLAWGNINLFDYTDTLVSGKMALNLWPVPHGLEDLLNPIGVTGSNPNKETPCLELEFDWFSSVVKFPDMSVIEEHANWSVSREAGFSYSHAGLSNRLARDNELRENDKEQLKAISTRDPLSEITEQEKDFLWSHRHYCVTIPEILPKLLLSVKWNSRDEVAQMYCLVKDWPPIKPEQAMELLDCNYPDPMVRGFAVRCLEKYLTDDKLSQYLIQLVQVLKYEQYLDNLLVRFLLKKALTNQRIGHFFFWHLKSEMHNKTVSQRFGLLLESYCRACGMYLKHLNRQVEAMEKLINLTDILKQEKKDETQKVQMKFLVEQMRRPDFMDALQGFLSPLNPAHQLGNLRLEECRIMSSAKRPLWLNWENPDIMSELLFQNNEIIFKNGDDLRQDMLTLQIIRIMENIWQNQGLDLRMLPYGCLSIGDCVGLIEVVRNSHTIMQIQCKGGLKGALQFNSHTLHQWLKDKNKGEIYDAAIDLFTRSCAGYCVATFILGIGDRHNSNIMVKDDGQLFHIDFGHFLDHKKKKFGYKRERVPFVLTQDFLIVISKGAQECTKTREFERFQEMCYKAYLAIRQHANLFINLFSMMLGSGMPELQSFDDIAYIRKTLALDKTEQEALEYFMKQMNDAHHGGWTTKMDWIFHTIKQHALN

In the case of `CCOc1cc(C(=O)N2CCC(N3CCN(C)CC3)CC2)ccc1Nc1ncc2c(n1)N(C1CCCC1)c1ccccc1C(=O)N2C` [Compound 26], the “KINOMEscan: PIK3CA(C420R)” value (panel of 442 kinases [1]) is reported as 99, the “KINOMEscan: AMPK-alpha2” value (panel of 442 kinases [2]) is reported as 100 and the “KINOMEscan: CHEK2” value (panel of 442 kinases [3]) is reported as 100. For the same compound, the “KINOMEscan: KIT(L576P)” value (panel of 442 kinases [4]) was 100.
`COc1cc(C(=O)N2CCC(N3CCN(C)CC3)CC2)ccc1Nc1ncc2c(n1)N(C1CCCC1)c1ccccc1C(=O)N2C` [Compound 25, 11-cyclopentyl-2-((2-methoxy-4-(4-(4-methylpiperazin-1-yl)piperidine-1-carbonyl)phenyl)amino)-5-methyl-5H-benzo[e]pyrimido[5,4-b][1,4]diazepin-6(11H)-one] was tested, and the “KINOMEscan: PIK3CA(C420R)” value (panel of 442 kinases [1]) was 100, the “KINOMEscan: AMPK-alpha2” value (panel of 442 kinases [2]) was 76 and the “KINOMEscan: CHEK2” value (panel of 442 kinases [3]) was 100. For the same compound, the “KINOMEscan: KIT(L576P)” value (panel of 442 kinases [4]) was 93.
`COc1cc(C(=O)N2CCC(N3CCN(C)CC3)CC2)ccc1Nc1ncc2c(n1)N(C)c1ccccc1C(=O)N2C` [15 (LRRK2-IN-1)] was tested, and the “KINOMEscan: PIK3CA(C420R)” value (panel of 442 kinases [1]) was 89, the “KINOMEscan: AMPK-alpha2” value (panel of 442 kinases [2]) was 66 and the “KINOMEscan: CHEK2” value (panel of 442 kinases [3]) was 66. For the same compound, the “KINOMEscan: KIT(L576P)” value (panel of 442 kinases [4]) was 100.
